Laboratory results taken from patent publication US20160159861A1, “APJ Receptor Compounds” (priority 2013, published 2016).
Like-named read-outs stand apart in the source and are kept apart here. Peptide text beside a SMILES is read from it.

What was measured:
Format in all cases: cell-based
APJ receptor [1] = molecular target: T1, APJ receptor (Homo sapiens, UniProt P35414); test: DiscoveRx PathHunter β-arrestin recruitment assay; conditions: for β-arrestin recruitment: dose dependent chemiluminescence, FIGS. 3A-3B; for Emax: read-out: β-arrestin Signaling Max Response
T1 sequence (P35414 1-380): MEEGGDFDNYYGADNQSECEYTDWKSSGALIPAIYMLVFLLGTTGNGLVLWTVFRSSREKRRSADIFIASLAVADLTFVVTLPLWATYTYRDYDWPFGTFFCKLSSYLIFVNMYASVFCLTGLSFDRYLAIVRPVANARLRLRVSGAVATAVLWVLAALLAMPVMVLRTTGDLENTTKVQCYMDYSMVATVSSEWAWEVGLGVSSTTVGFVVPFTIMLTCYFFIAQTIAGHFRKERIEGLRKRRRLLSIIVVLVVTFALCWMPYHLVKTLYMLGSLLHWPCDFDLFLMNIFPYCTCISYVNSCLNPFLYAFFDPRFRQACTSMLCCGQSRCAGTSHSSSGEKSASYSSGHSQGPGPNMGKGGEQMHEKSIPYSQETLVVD
Description: Activation of the β-Arrestin signaling pathway was monitored using the commercially available DiscoveRx PathHunter® assay. This assay employs a homogenous, non-imaging assay format called Enzyme Fragment Complementation (EFC) using β-galactosidase (β-Gal) as the functional reporter. […] EA is fused to β-Arrestin and ED is fused to the GPCR of interest. When the GPCR is activated and β-Arrestin is recruited to the receptor, ED and EA complementation occurs, restoring βGal activity which is measured using chemiluminescent PathHunter® Detection Reagent.

[2] = molecular target: T2, human APJ receptor (hAPJ) (Homo sapiens, UniProt P35414); test: HTRF cAMP assay: inhibition of NKH477-stimulated cAMP in HEK cells stably expressing hAPJ; conditions: for Emax: HEK293, read-out: % IA, bound stated; for % IA (cAMP inhibition, hAPJ HEK): intrinsic activity; for Ranking: composite class of EC50 (hAPJ), % IA and % histamine or formal (+) charge; for inhibition of NKH477-stimulated increase in cAMP, dose dependent: concentration response curves, FIGS. 1 and 2, HEK cells stably expressing APJ
T2 construct: expressed in transfected cells
T2 sequence (P35414 1-380): T1 sequence (P35414 1-380)
In short: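 HEK cells stably expressing hAPJ, induced with 1 nG/mL doxycycline and seeded overnight at 40 k/well. cAMP read by HTRF competitive immunoassay using cryptate-labeled anti-cAMP antibody and d2-labeled cAMP.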

rat peritoneal cells = test: Ex vivo histamine release assay in rat peritoneal cells (vs. Compound 48/80)
In short: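 Resident peritoneal cells were lavaged from male Sprague Dawley rats and kept in HBSS/20 mM HEPES/0.2% BSA at 25,000 cells/well. They were exposed for 30 min at room temperature to compound at 3 points (100, 10, 1 μM DMSO stocks, 1% DMSO final). Released histamine was measured by HTRF and normalised to total histamine after Triton lysis. Compound 48/80 was the reference.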

APJ receptor [3] = molecular target: T1, APJ receptor; test: Cellul'erk ERK phosphorylation assay in APJ-TREX cells; set-up: expressed in transfected cells; host or cells: Human TRex (APJ-TREX) cells, doxycycline-inducible expression; conditions: relative to max pyr-apelin-13 activity at 100 nM; 3 or 0.3 μM compound, 5 minutes
Description: Experiments were performed to test activation of the ERK and p38 pathways using the Cellul'erk and the Phospho-p38 MAPK (Thr180/Tyr182) assay kits (Cisbio). APJ-TREX cells were optimized for signaling (pre-serum starved overnight with low FBS serum (2% FBS media) with 1 ng/ml doxycyclin (for induction of APJ receptor expression), 50,000 cells, 5 minutes agonist activation for ERK activity). Cells were pretreated with 3 or 0.3 μM pepducin compound for 5 minutes and the reaction was stopped by lysis buffer. Lysates are then transferred to the assay plate for the detection of phosphorylated ERK or p38 by HTRF reagents.

CXCR4 receptor = CXCR4 receptor (Homo sapiens, UniProt P61073); test: Activity at CXCR4 receptor (selectivity, Gi-coupled GPCR); conditions: FIGS. 6A-6C, selectivity vs. hAPJ
Chain of CXCR4 receptor (P61073 whole entry): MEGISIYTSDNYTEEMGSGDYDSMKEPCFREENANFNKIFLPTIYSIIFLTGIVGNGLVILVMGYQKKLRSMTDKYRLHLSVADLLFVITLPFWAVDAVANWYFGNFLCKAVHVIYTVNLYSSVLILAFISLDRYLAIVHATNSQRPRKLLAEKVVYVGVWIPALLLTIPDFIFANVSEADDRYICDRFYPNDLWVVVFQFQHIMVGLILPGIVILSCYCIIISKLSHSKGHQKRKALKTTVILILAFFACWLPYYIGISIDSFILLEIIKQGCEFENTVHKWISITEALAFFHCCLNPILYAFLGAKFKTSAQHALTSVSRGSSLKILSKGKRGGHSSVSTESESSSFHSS

[4] = EC50 (cAMP inhibition, hAPJ HEK), Table 6, hAPJ HEK cells, NKH477-stimulated cAMP
[5] = EC50 (hAPJ), inhibition of cAMP production, bound stated, HTRF cAMP Assay, per data of Table 6
[6] = HTRF cAMP Assay, per data of Table 6
[7] = histamine release from rat peritoneal cells relative to Compound 48/80
[8] = HTRF cAMP Assay, per data of Table 6, read-out: EC50 (hAPJ), inhibition of cAMP production, bound stated
[9] = Table 6, hAPJ HEK cells, NKH477-stimulated cAMP, read-out: EC50 (cAMP inhibition, hAPJ HEK)

| Compound | EC50 (APJ receptor [1]) [nM] | β-arrestin recruitment (APJ receptor [1]) | Emax (APJ receptor [1]) [%] | EC50 [2, 4] [nM] | EC50 [2, 5] [nM] | Emax [2, 6] [%] | % IA (cAMP inhibition, hAPJ HEK) ([2]; Table 6, hAPJ HEK cells) [%] | Ranking [2] | Histamine (% vs. 48/80) (rat peritoneal cells; [7]) [%] | Average % Activity (ERK agonist activity) (APJ receptor [3]) [%] | EC50 [2, 8] [nM] | EC50 [2, 9] [nM] | inhibition of NKH477-stimulated increase in cAMP, dose dependent [2] | activity at the CXCR4 receptor (CXCR4 receptor) | EC50 (APJ receptor [1]; PathHunter chemiluminescence, read-out: β-arrestin Signaling EC50) [nM] | Histamine (% vs. 48/80) (rat peritoneal cells) [%] |
| --- | --- | --- | --- | --- | --- | --- | --- | --- | --- | --- | --- | --- | --- | --- | --- | --- |
| CCCCCCCCCCCCCCCC(=O)N1CCC[C@H]1C(=O)N[C@H](C(=O)N[C@H](C(=O)N[C@@H](Cc1ccccc1)C(=O)N[C@@H](CCCNC(=N)N)C(=O)N[C@@H](CO)C(=O)N1CCC[C@H]1C(=O)N[C@@H](CO)C(=O)N[C@@H](CCC(=O)O)C(=O)N[C@H](CCCCN)C(=O)N[C@@H](CCCNC(=N)N)C(=O)N[C@@H](CCCNC(=N)N)C(=O)N[C@@H](CO)C(=O)N[C@@H](C)C(=O)N[C@@H](CC(=O)O)C(=O)N[C@H](C(=O)N[C@@H](Cc1ccccc1)C(=O)N[C@H](C(N)=O)[C@@H](C)CC)[C@@H](C)CC)C(C)C)[C@@H](C)O [Compound 3] (HELM PEPTIDE1{[CCCCCCCCCCCCCCCC(=O)[*:2]].P.T.V.F.R.S.P.S.E.[dK].R.R.S.A.D.I.F.I.[am]}$$$$V2.0) | 8.2 | weakly engaged | 11 | 13 | ≤ 25 | ≥ 80 | 90 | **** (EC50≦25 nM (hAPJ), % IA≧80% and either % histamine>35% or formal (+) charge>1) | 64 | – | – | – | – | – | – | – |
| CCCCCCCCCCCCCCCC(=O)N[C@H](C(=O)N[C@H](C(=O)N[C@@H](Cc1ccccc1)C(=O)N[C@@H](CCCNC(=N)N)C(=O)N[C@@H](CO)C(=O)N[C@@H](CCC(=O)O)C(=O)N[C@H](CCCCN)C(=O)N[C@@H](CCCNC(=N)N)C(=O)N[C@@H](CCCNC(=N)N)C(=O)N[C@@H](CO)C(=O)N[C@@H](C)C(=O)N[C@@H](CC(=O)O)C(=O)N[C@@H](CCC(N)=O)C(=O)N[C@@H](Cc1ccccc1)C(=O)N[C@H](C(N)=O)[C@@H](C)CC)C(C)C)[C@@H](C)O [Compound 14] (HELM PEPTIDE1{[CCCCCCCCCCCCCCCC(=O)[*:2]].T.V.F.R.S.E.[dK].R.R.S.A.D.Q.F.I.[am]}$$$$V2.0) | – | – | – | – | – | ≥ 80 | 87 | **** (EC50≦25 nM (hAPJ), % IA≧80% and either % histamine>35% or formal (+) charge>1) | – | 58.2 | ≤ 25 | 8 | inhibited | lack of dose-responsive activity | – | – |
| CCCCCCCCCCCCCCCC(=O)N[C@H](C(=O)N[C@H](C(=O)N[C@@H](Cc1ccccc1)C(=O)N[C@@H](CCCNC(=N)N)C(=O)N[C@@H](CO)C(=O)N[C@@H](CO)C(=O)N[C@@H](CCC(=O)O)C(=O)N[C@H](CCCCN)C(=O)N[C@@H](CCCNC(=N)N)C(=O)N[C@@H](CCCNC(=N)N)C(=O)N[C@@H](CO)C(=O)N[C@@H](C)C(=O)N[C@@H](CC(=O)O)C(=O)N[C@@H](CC(N)=O)C(=O)N[C@@H](Cc1ccccc1)C(=O)N[C@H](C(N)=O)[C@@H](C)CC)C(C)C)[C@@H](C)O [Compound 18] (HELM PEPTIDE1{[CCCCCCCCCCCCCCCC(=O)[*:2]].T.V.F.R.S.S.E.[dK].R.R.S.A.D.N.F.I.[am]}$$$$V2.0) | – | – | – | – | – | ≥ 80 | 117 | **** (EC50≦25 nM (hAPJ), % IA≧80% and either % histamine>35% or formal (+) charge>1) | – | – | ≤ 25 | 15 | inhibited | lack of dose-responsive activity | – | – |
| CCCCCCCCCCCCCCCC(=O)N[C@H](C(=O)N[C@H](C(=O)N[C@@H](Cc1ccccc1)C(=O)N[C@@H](CCCNC(=N)N)C(=O)N[C@@H](CO)C(=O)N[C@@H](CO)C(=O)N1CCC[C@H]1C(=O)N[C@@H](CCC(=O)O)C(=O)N[C@H](CCCCN)C(=O)N[C@@H](CCCNC(=N)N)C(=O)N[C@@H](CCCNC(=N)N)C(=O)N[C@@H](CO)C(=O)N[C@@H](C)C(=O)N[C@@H](CC(=O)O)C(=O)N[C@H](C(=O)N[C@@H](Cc1ccccc1)C(=O)N[C@H](C(N)=O)[C@@H](C)CC)[C@@H](C)CC)C(C)C)[C@@H](C)O [Compound 25] (HELM PEPTIDE1{[CCCCCCCCCCCCCCCC(=O)[*:2]].T.V.F.R.S.S.P.E.[dK].R.R.S.A.D.I.F.I.[am]}$$$$V2.0) | 3.1 | weakly engaged | 12.6 | 15 | ≤ 25 | ≥ 80 | 138 | **** (EC50≦25 nM (hAPJ), % IA≧80% and either % histamine>35% or formal (+) charge>1) | 51 | 25.5 | – | – | inhibited | – | – | – |
| CCCCCCCCCCCCCCCC(=O)N[C@H](C(=O)N[C@H](C(=O)N[C@@H](Cc1ccccc1)C(=O)N[C@@H](CCCNC(=N)N)C(=O)N[C@@H](CO)C(=O)N[C@@H](CO)C(=O)N1CCC[C@H]1C(=O)N[C@@H](CCC(=O)O)C(=O)N[C@H](CCCCN)C(=O)N[C@@H](CCCNC(=N)N)C(=O)N[C@@H](CCCNC(=N)N)C(=O)N[C@@H](CO)C(=O)N[C@@H](C)C(=O)N[C@@H](CC(=O)O)C(=O)N[C@H](C(=O)N[C@@H](Cc1ccccc1)C(=O)N1CCC[C@H]1C(N)=O)[C@@H](C)CC)C(C)C)[C@@H](C)O [Compound 26] (HELM PEPTIDE1{[CCCCCCCCCCCCCCCC(=O)[*:2]].T.V.F.R.S.S.P.E.[dK].R.R.S.A.D.I.F.P.[am]}$$$$V2.0) | – | weakly engaged | 46 | – | – | ≥ 80 | 105 | **** (EC50≦25 nM (hAPJ), % IA≧80% and either % histamine>35% or formal (+) charge>1) | – | – | ≤ 25 | 11 | inhibited | – | 59.6 | 73 |
| CCCCCCCCCCCCCCCC(=O)N[C@H](C(=O)N[C@H](C(=O)N[C@@H](Cc1ccccc1)C(=O)N[C@@H](CCCNC(=N)N)C(=O)N[C@@H](CO)C(=O)N[C@@H](CO)C(=O)N[C@@H](CCC(=O)O)C(=O)N1CCC[C@H]1C(=O)N[C@H](CCCCN)C(=O)N[C@@H](CCCNC(=N)N)C(=O)N[C@@H](CCCNC(=N)N)C(=O)N[C@@H](CO)C(=O)N[C@@H](C)C(=O)N[C@@H](CC(=O)O)C(=O)N[C@H](C(=O)N[C@@H](Cc1ccccc1)C(=O)N[C@H](C(N)=O)[C@@H](C)CC)[C@@H](C)CC)C(C)C)[C@@H](C)O [Compound 27] (HELM PEPTIDE1{[CCCCCCCCCCCCCCCC(=O)[*:2]].T.V.F.R.S.S.E.P.[dK].R.R.S.A.D.I.F.I.[am]}$$$$V2.0) | 8.1 | weakly engaged | 23.7 | 7 | ≤ 25 | ≥ 80 | 105 | **** (EC50≦25 nM (hAPJ), % IA≧80% and either % histamine>35% or formal (+) charge>1) | 67 | – | – | – | inhibited | – | – | – |
| CCCCCCCCCCCCCCCC(=O)N[C@H](C(=O)N[C@H](C(=O)N[C@@H](Cc1ccccc1)C(=O)N[C@@H](CCCNC(=N)N)C(=O)N[C@@H](CO)C(=O)N[C@@H](CO)C(=O)N[C@@H](CCC(=O)O)C(=O)N1CCC[C@H]1C(=O)N[C@H](CCCCN)C(=O)N[C@@H](CCCNC(=N)N)C(=O)N[C@@H](CCCNC(=N)N)C(=O)N[C@@H](CO)C(=O)N[C@@H](C)C(=O)N[C@@H](CC(=O)O)C(=O)N[C@H](C(=O)N[C@@H](Cc1ccccc1)C(=O)N1CCC[C@H]1C(N)=O)[C@@H](C)CC)C(C)C)[C@@H](C)O [Compound 28] (HELM PEPTIDE1{[CCCCCCCCCCCCCCCC(=O)[*:2]].T.V.F.R.S.S.E.P.[dK].R.R.S.A.D.I.F.P.[am]}$$$$V2.0) | – | – | – | – | – | ≥ 80 | 99 | **** (EC50≦25 nM (hAPJ), % IA≧80% and either % histamine>35% or formal (+) charge>1) | – | 34.7 | ≤ 25 | 17 | – | lack of dose-responsive activity | – | – |
